Measured values from PMC7397076 (Molecules, 2020).
Converted amounts (≈) assume the structure as drawn. Read-outs that look alike come from different tables or passages of the source.

Legend:
InhA reductase enzyme = InhA reductase enzyme (Mycobacterium tuberculosis, UniProt P9WGR1); experiment: In vitro InhA enzyme inhibition (NADH oxidation at 340 nm)
Vero cell line = experiment: Cytotoxicity test, MTT assay; format: cell-based, African green monkey; settings: Chlorocebus sabaeus, 24 h, Vero cells, 24 h exposure, 0.1–200 µg/mL, read-out: Vero Cell Line IC50 ± SEM
[1] = test system: Mycobacterium tuberculosis H37Rv; experiment: Microplate Alamar Blue Assay (MABA), antitubercular activity; format: cell-based
[2] = M. tuberculosis H37Rv, MABA, lowest concentration giving ≥90% reduction in fluorescence
[3] = Mycobacterium tuberculosis, H37RV, M. tuberculosis H37Rv, MABA, lowest concentration giving ≥90% reduction in fluorescence, read-out: MIC

Sequence of InhA reductase enzyme (P9WGR1 whole entry, looked up): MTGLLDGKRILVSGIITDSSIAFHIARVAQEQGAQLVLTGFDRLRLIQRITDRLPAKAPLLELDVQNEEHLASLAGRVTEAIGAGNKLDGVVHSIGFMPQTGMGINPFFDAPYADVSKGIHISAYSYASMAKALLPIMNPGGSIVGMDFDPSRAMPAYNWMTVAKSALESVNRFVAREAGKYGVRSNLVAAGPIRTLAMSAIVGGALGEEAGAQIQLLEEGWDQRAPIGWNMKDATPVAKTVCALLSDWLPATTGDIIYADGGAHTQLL

| Compound | IC50 (InhA reductase enzyme) | IC50 (Vero cell line) | MIC [1, 2] | MIC [1, 3] | melting point | MIC ([1]; Mycobacterium tuberculosis, H37RV) |
| --- | --- | --- | --- | --- | --- | --- |
| NNC(=O)c1ccc(Oc2ccccc2)cc1 [Compound 3, 4-Phenoxybenzohydrazide] | 3.43 µM | > 60 µg/mL | 0.86 µg/mL (≈ 3.77 µM) | 0.61 to 1.69 µg/mL (≈ 2.67 to 7.4 µM) |  |  |
| c1ccc(Oc2ccc(-c3nnco3)cc2)cc1 [Compound 4, 2-(4-Phenoxyphenyl)-1,3,4-oxadiazole] | 3.28 µM | > 60 µg/mL | 0.61 µg/mL (≈ 2.56 µM) | 0.61 to 1.69 µg/mL (≈ 2.56 to 7.09 µM) |  |  |
| c1ccc(Oc2ccc(-c3nnc(-c4ccccc4)o3)cc2)cc1 [Compound 6a, 2-(4-Phenoxyphenyl)-5-phenyl-1,3,4-oxadiazole] | > 100 µM |  |  | 2.74 µg/mL (≈ 8.72 µM) | 233 to 235 °C |  |
| COc1cc(-c2nnc(-c3ccc(Oc4ccccc4)cc3)o2)cc(OC)c1OC [Compound 6b, 2-(4-Phenoxyphenyl)-5-(3,4,5-trimethoxyphenyl)-1,3,4-oxadiazole] | > 100 µM |  |  | 34.6 µg/mL (≈ 85.7 µM) | 250 to 253 °C |  |
| COc1ccc(-c2nnc(-c3ccc(Oc4ccccc4)cc3)o2)cc1 [Compound 6c, 2-(4-Methoxyphenyl)-5-(4-phenoxyphenyl)-1,3,4-oxadiazole] | > 100 µM |  |  | 39 µg/mL (≈ 113 µM) | 226 to 228 °C |  |
| O=[N+]([O-])c1ccc(-c2nnc(-c3ccc(Oc4ccccc4)cc3)o2)cc1 [Compound 6d, 2-(4-Nitrophenyl)-5-(4-phenoxyphenyl)-1,3,4-oxadiazole] | 68.4 µM |  |  | 15.2 µg/mL (≈ 42.2 µM) | 226 to 228 °C |  |
| Clc1ccc(-c2nnc(-c3ccc(Oc4ccccc4)cc3)o2)cc1 [Compound 6e, 2-(4-Chlorophenyl)-5-(4-phenoxyphenyl)-1,3,4-oxadiazole] | 64.5 µM |  |  | 15.9 µg/mL (≈ 45.6 µM) |  |  |
| c1ccc(COc2ccc(-c3nnc(-c4ccc(Oc5ccccc5)cc4)o3)cc2)cc1 [Compound 6f, 2-(4-(Benzyloxy)phenyl)-5-(4-phenoxyphenyl)-1,3,4-oxadiazole] | 41.2 µM |  |  | 8.23 µg/mL (≈ 19.6 µM) | 226 to 229 °C |  |
| c1ccc(Oc2ccc(-c3nnc(-c4cccc5ccccc45)o3)cc2)cc1 [Compound 6g, 2-(Naphthalen-1-yl)-5-(4-phenoxyphenyl)-1,3,4-oxadiazole] | 33.8 µM |  |  | 12.2 µg/mL (≈ 33.6 µM) | 173 to 175 °C |  |
| c1ccc(Oc2ccc(-c3nnc(-c4cccnc4)o3)cc2)cc1 [Compound 6h, 2-(4-Phenoxyphenyl)-5-(pyridin-3-yl)-1,3,4-oxadiazole] | 5.08 µM | > 60 µg/mL |  |  | 143 to 144 °C |  |
| c1ccc(Oc2ccc(-c3nnc(-c4ccncc4)o3)cc2)cc1 [Compound 6i, 2-(4-Phenoxyphenyl)-5-(pyridin-4-yl)-1,3,4-oxadiazole] | 11.7 µM | > 60 µg/mL |  |  | 125 to 127 °C |  |
| c1ccc(Oc2ccc(-c3nnc(-c4ccco4)o3)cc2)cc1 [Compound 6j, 2-(Furan-2-yl)-5-(4-phenoxyphenyl)-1,3,4-oxadiazole] | 51.4 µM |  |  | 11.1 µg/mL (≈ 36.5 µM) | 129 to 132 °C |  |
| c1ccc(Oc2ccc(-c3nnc(-c4cccs4)o3)cc2)cc1 [Compound 6k, 2-(4-Phenoxyphenyl)-5-(thiophen-2-yl)-1,3,4-oxadiazole] | 78.6 µM | 68.6 ± 1.19 µg/mL (≈ 214 µM) |  |  | 139 to 141 °C |  |
| c1ccc(Oc2ccc(-c3nnc(-c4ccc(Oc5ccccc5)cc4)o3)cc2)cc1 [Compound 6l, 2,5-bis(4-Phenoxyphenyl)-1,3,4-oxadiazole] | 5.63 µM | > 60 µg/mL | 1.17 µg/mL (≈ 2.88 µM) | 0.61 to 1.69 µg/mL (≈ 1.5 to 4.16 µM) | 232 to 234 °C |  |
| O=C(N/N=C/c1ccccc1)c1ccc(Oc2ccccc2)cc1 [Compound 8a, (E)-N′-Benzylidene-4-phenoxybenzohydrazide] | 73.2 µM |  |  | 34.5 µg/mL (≈ 109 µM) | 163 to 165 °C |  |
| COc1cc(/C=N/NC(=O)c2ccc(Oc3ccccc3)cc2)cc(OC)c1OC [Compound 8b, (E)-4-Phenoxy-N′-(3,4,5-trimethoxybenzylidene)benzohydrazide] | > 100 µM |  |  | 50.2 µg/mL (≈ 124 µM) | 191 to 192 °C |  |
| COc1ccc(/C=N/NC(=O)c2ccc(Oc3ccccc3)cc2)cc1 [Compound 8c, (E)-N′-(4-Methoxybenzylidene)-4-phenoxybenzohydrazide] | 75.5 µM |  |  | 20.7 µg/mL (≈ 59.7 µM) | 233 to 235 °C |  |
| O=C(N/N=C/c1ccc(Cl)cc1)c1ccc(Oc2ccccc2)cc1 [Compound 8e, (E)-N′-(4-Chlorobenzylidene)-4-phenoxybenzohydrazide] | 7.46 µM |  |  | 2.89 µg/mL (≈ 8.24 µM) | 184 to 186 °C |  |
| O=C(N/N=C/c1ccc(OCc2ccccc2)cc1)c1ccc(Oc2ccccc2)cc1 [Compound 8f, (E)-N′-[4-(Benzyloxy)benzylidene]-4-phenoxybenzohydrazide] | 29.9 µM |  |  | 22.6 µg/mL (≈ 53.5 µM) | 228 to 231 °C |  |
| O=C(N/N=C/c1cccc2ccccc12)c1ccc(Oc2ccccc2)cc1 [Compound 8g, (E)-N′-(Naphthalen-1-ylmethylene)-4-phenoxybenzohydrazide] | 4.23 µM | > 60 µg/mL |  |  | 193 to 195 °C |  |
| O=C(N/N=C/c1cccnc1)c1ccc(Oc2ccccc2)cc1 [Compound 8h, (E)-4-Phenoxy-N′-(pyridin-3-ylmethylene)benzohydrazide] | 26.5 µM |  |  | 6.96 µg/mL (≈ 21.9 µM) | 149 to 151 °C |  |
| O=C(N/N=C/c1ccncc1)c1ccc(Oc2ccccc2)cc1 [Compound 8i, (E)-4-Phenoxy-N′-(pyridin-4-ylmethylene)benzohydrazide] | 21.4 µM |  |  | 6.82 µg/mL (≈ 21.5 µM) | 175 to 177 °C |  |
| O=C(N/N=C/c1ccco1)c1ccc(Oc2ccccc2)cc1 [Compound 8j, (E)-N′-(Furan-2-ylmethylene)-4-phenoxybenzohydrazide] | 18.4 µM |  |  | 6.35 µg/mL (≈ 20.7 µM) |  |  |
| O=C(N/N=C/c1cccs1)c1ccc(Oc2ccccc2)cc1 [Compound 8k, (E)-4-Phenoxy-N′-(thiophen-2-ylmethylene)benzohydrazide] | 5.61 µM | > 60 µg/mL |  |  | 182 to 183 °C |  |
| NNC(=O)c1ccncc1 [INH, isoniazid, reference compound] |  |  | 0.20 µg/mL (≈ 1.46 µM) | 0.2 µg/mL (≈ 1.46 µM) |  |  |
| Oc1cc(Cl)ccc1Oc1ccc(Cl)cc1Cl [Triclosan, triclosan, reference compound] |  |  | 10.00 µg/mL (≈ 34.5 µM) |  |  | 10 µg/mL (≈ 34.5 µM) |
